From patent US20240368163A1, “COMPOUNDS AND METHODS FOR MODULATING SPLICING” (REMIX THERAPEUTICS INC., priority 2021, published 2024)

Legend:
Assay type in all cases: cell-based, human
MYB [1] = experiment: Splicing RT-qPCR assay, MYB mRNA canonical junction (CJ) and alternative junction (AJ); details: Homo sapiens; for AC50: increase in AJ mRNA
Experimental: (§1) Compounds described herein were used to modulate RNA transcript abundance in cells. The expression of a target mRNA was measured by detecting the formation of an exon-exon junction in the canonical transcript (CJ). A compound mediated exon-inclusion event was detected by observing an increase in formation of a new junction with an alternative exon (AJ). Real-time qPCR assays were used to detect these splicing switches and interrogate the potency of various compounds towards different target genes. A high-throughput real time quantitative PCR (RT-qPCR) assay was developed to measure these two isoforms of the mRNA (CJ and AJ) for exemplary genes, such as HTT, SMN2, and MYB, together with a control housekeeping gene, GAPDH or GUSB or PPIA, used for normalization. Briefly, the A673 or K562 cell line was treated with various compounds described herein (e.g., compounds of Formula (I)). After treatment, the levels of the HTT, MYB, or SMN2 mRNA targets were determined from each sample of cell lysate by cDNA synthesis followed by qPCR.
(§2) The A673 cell line was cultured in DMEM with 10% FBS. Cells were diluted with full growth media and plated in a 96-well plate (15,000 cells in 100 ul media per well). The plate was incubated at 37° C. with 5% CO2 for 24 hours to allow cells to adhere. An 11-point 3-fold serial dilution of the compounds was made in DMSO then diluted in media in an intermediate plate. Compounds were transferred from the intermediate plate to the cell plate with the top dose at a final concentration of 10 uM in the well. Final DMSO concentration was kept at or below 0.25%. The cell plate was returned to the incubator at 37° C. with 5% CO2 for an additional 24 hours.
(§3) The K562 cell line was cultured in IMDM with 10% FBS. For K562, cells were diluted with full growth media and plated in either a 96-well plate (50,000 cells in 50 uL media per well) or a 384-well plate (8,000-40,000 cells in 45 uL media per well). An 11-point 3-fold serial dilution of the compounds were made in DMSO then diluted in media in an intermediate plate. Compound was transferred from the intermediate plate to the cell plate with the top dose at a final concentration of 10 uM in the well. Final DMSO concentration was kept at or below 0.25%. Final volume was 100 uL for 96-well plate and 50 uL for 384-well plate. The cell plate was then placed in an incubator at 37° C. with 5% CO2 for 24 hours.
(§4) The cells were then gently washed with 50 uL-100 uL cold PBS before proceeding to addition of lysis buffer. 30 uL-50 μL of room temperature lysis buffer with DNAse I (and optionally RNAsin) was added to each well. Cells were shaken/mixed thoroughly at room temperature for 5-10 minutes for lysis to take place and then 3 uL-5 μL of room temperature stop solution was added and wells were shaken/mixed again. After 2-5 minutes, the cell lysate plate was transferred to ice for RT-qPCR reaction setup. The lysates could also be frozen at −80° C. for later use.
(§5) In some cases, a direct lysis buffer was used. An appropriate volume of 3× lysis buffer (10 mM Tris, 150 mM NaCl, 1.5%-2.5% Igepal and 0.1-1 U/uL RNAsin, pH 7.4) was directly added to either K562 or A673 cells in media and mixed by pipetting 3 times. The plates were then incubated at room temperature with shaking/rocking for 20-50 minutes to allow for lysis to take place. After this time, the cell lysate plate was transferred to ice to set up for the RT-qPCR reactions. The lysates could also be frozen at −80° C. for later use.
(§6) To set up 10 uL RT-qPCR reactions, cell lysates were transferred to 384-well qPCR plates containing the master mix according to the table below. The plates were sealed, gently vortexed, and spun down before the run. The volumes were adjusted accordingly in some instances where the reaction was carried in 20 μL. The table below summarizes the components of the RT-qPCR reactions:
(§7) The RT-qPCR reaction was performed using a QuantStudio (ThermoFisher) under the following fast cycling conditions. […]

HTT [2] = experiment: HiBiT protein abundance assay, HTT; details: Homo sapiens, K562, 24 h, Table 13A, modified K562 cells
Experimental: (§8) Compounds described herein were used to screen for effects on quantitative protein abundance using a HiBit assay system (Promega). Quantitative protein abundance was determined by measuring the protein levels of HiBit-tagged protein targets expressed in cell culture via luminescence using the Nano-Glo HiBiT Lytic Detection System, which uses a split complementation assay format to reconstitute NanoBiT enzyme to generate a luminescent signal. A protein abundance assay was developed such that endogenous protein targets could be modified with the HiBiT peptide tag and their abundance could be assessed after compound treatment. Briefly, K562 cell lines containing a HiBiT-modification were treated with various compounds described herein (e.g., compounds of Formulas (I), (II), or (III)). After treatment for 24 hours, the protein abundance of a specific target was determined by measuring luminescence.
(§9) Cells were maintained in IMIDM with 10% FBS. Before the assay, cells were diluted with […] growth media (IMIDM+[…] media) and were seeded in a 384-well plate at a density of 10000 cells/well (for each cell line listed in Table 12). Each compound was prepared as a 10-point 3-fold serial dilution in DMSO with the top dose at a final concentration of 10 μM in the well. Unmodified K562 cells were added at the previously specified density with DMSO to serve as an assay baseline and positive control (PC) and DMSO only with the respective modified cell lines was added to the negative control (NC) columns. Final DMSO concentration was kept at or below 0.25%. Treated cell plates were placed in an incubator at 37° C. with 5% CO2 for 24 hours. After 24 hours, 25 μL of Complete HiBit Lytic reagent was added to each well at room temperature (e.g. one plate requiring 10 mL Lytic Buffer, 100 μL LgBiT Protein, 200 μL Lytic Substrate), shaken for 5 minutes at 600 RPM, then left to sit for 10 minutes for signal to stabilize before reading on a Spark Cyto plate reader (Tecan) with a 500 ms measurement time.
(§10) To determine compound effects on protein abundance of each target in Table 12, the percent response for each respective cell line was calculated at each compound concentration as follows:
(§11) For the normalized response at each concentration, a four-parameter logistical regression was fit to the data and the response was interpolated at the 50% value to determine a concentration for protein abundance at 50% (IC50) the untreated control.

Target C [3] = experiment: Splicing RT-qPCR panel, Target C canonical junction (CJ) mRNA; details: Homo sapiens, RT-qPCR panel, canonical junction mRNA; compound concentration having 50% response in CJ decrease; read-out: Target C IC50 (decrease in CJ mRNA levels)
Experimental: as §1, §2, §3, §4, §5, §6, §7

HTT [4] = experiment: Splicing RT-qPCR assay, HTT mRNA canonical junction (CJ) and alternative junction (AJ); details: Homo sapiens; for AC50: increase in AJ mRNA
Experimental: as §1, §2, §3, §4, §5, §6, §7

MYB [5] = experiment: HiBiT protein abundance assay, MYB; details: Homo sapiens, K562, 24 h, Table 13A, modified K562 cells
Experimental: as §8, §9, §10, §11

Target C [6] = experiment: HiBiT protein abundance assay, Target C; details: Homo sapiens, K562, 24 h, Table 13A, modified K562 cells
Experimental: • Promega Nano-Glo HiBiT Lytic Detection System (cat #N3030) • Coming 384-well TC-treated microplates (cat #3570) • Synthego Engineered Cells Knock-In Clones
as §9, §10, §11

SMN2 = experiment: Splicing RT-qPCR panel, SMN2 canonical junction (CJ) mRNA; details: Homo sapiens, RT-qPCR panel, canonical junction mRNA; compound concentration having 50% response in CJ decrease; read-out: SMN2 IC50 (decrease in CJ mRNA levels)
Experimental: as §1, §2, §3, §4, §5, §6, §7

[7] = 24 h, decrease in CJ mRNA, A673 or K562 cells, 24 hours treatment, RT-qPCR, read-out: MYB CJ IC50
[8] = 24 h, A673 or K562 cells, 24 hours treatment, RT-qPCR
[9] = RT-qPCR panel, canonical junction mRNA, compound concentration having 50% response in CJ decrease, read-out: MYB IC50 (decrease in CJ mRNA levels)
[10] = 24 h, decrease in CJ mRNA, A673 or K562 cells, 24 hours treatment, RT-qPCR, read-out: HTT CJ IC50
[11] = RT-qPCR panel, canonical junction mRNA, compound concentration having 50% response in CJ decrease, read-out: HTT IC50 (decrease in CJ mRNA levels)
[12] = A673 or K562 cells, 24 hours treatment, RT-qPCR

| SMILES | IC50 (MYB [1]; [7]) | AC50 (MYB [1]; [8]) | IC50 (MYB [1]; [9]) | IC50 (HTT [2]) | IC50 (Target C [3]) | AC50 (HTT [4]; [8]) | IC50 (MYB [5]) | IC50 (Target C [6]) | IC50 (HTT [4]; [10]) | IC50 (HTT [4]; [11]) | IC50 (SMN2) | IC50 (MYB [1]; decrease in CJ mRNA, A673 or K562 cells, 24 hours treatment, RT-qPCR, read-out: MYB CJ IC50) | AC50 (MYB [1]; [12]) | AC50 (HTT [4]; [12]) |
| --- | --- | --- | --- | --- | --- | --- | --- | --- | --- | --- | --- | --- | --- | --- |
| C[C@H]1C[C@@H](N(C)c2ccc(-c3ccc(-n4cccn4)c4cc[nH]c34)nn2)CCN1 [Compound 111] | 1 to 10 µM | > 10 µM | 1 to 10 µM | 1 to 10 µM | > 10 µM | > 10 µM | 1 to 10 µM | 1 to 10 µM |  |  |  |  |  |  |
| C[C@@H]1C[C@H](N(C)c2ccc(-c3ccc(-n4cccn4)c4nn[nH]c34)nn2)CCN1 [Compound 117] | 1 to 10 µM | 1 to 10 µM | 1 to 10 µM | 1 to 10 µM | 1 to 10 µM | 1 to 10 µM | 1 to 10 µM | 1 to 10 µM |  |  |  |  |  |  |
| CN(c1ccc(-c2ccc(-c3cn[nH]c3)c3nn[nH]c23)nn1)[C@@H]1C[C@H]2CC[C@@H](C1)N2 [Compound 118] | > 10 µM | 1 to 10 µM | > 10 µM | 1 to 10 µM | 1 to 10 µM | > 10 µM | 1 to 10 µM | 1 to 10 µM |  |  |  |  |  |  |
| CN(c1ccc(-c2ccc(-n3cccn3)c3nn[nH]c23)nn1)[C@@H]1C[C@H]2CC[C@@H](C1)N2 [Compound 119] | 0.1 to 1 µM | 0.1 to 1 µM | 0.1 to 1 µM |  | 0.1 to 1 µM | 1 to 10 µM |  |  | 0.1 to 1 µM | 0.1 to 1 µM | 0.1 to 1 µM |  |  |  |
| CN(c1ccc(-c2ccc(-c3cn[nH]c3)c3ccsc23)nn1)C1CC(C)(C)NC(C)(C)C1 [Compound 131] | > 10 µM | > 10 µM | > 10 µM |  |  | > 10 µM |  |  | 1 to 10 µM | 1 to 10 µM | 0.1 to 1 µM |  |  |  |
| CC1(C)CC(Oc2ccc(-c3ccc(-c4cn[nH]c4)c4cn[nH]c34)nn2)CC(C)(C)N1 [Compound 138] | 0.1 to 1 µM | 0.1 to 1 µM | 0.1 to 1 µM |  | 0.1 to 1 µM | 0.1 to 1 µM |  |  | 0.1 to 1 µM | 0.1 to 1 µM | 0.1 to 1 µM |  |  |  |
| CN(c1cnc(-c2cc(F)c(-c3cn[nH]c3)c3cn[nH]c23)nn1)[C@@H]1C[C@H]2CC[C@@H](C1)N2 [Compound 149] |  |  | 1 to 10 µM |  | 0.1 to 1 µM |  |  |  |  | < 0.1 µM | 0.1 to 1 µM | 1 to 10 µM | 1 to 10 µM | < 0.1 µM |
